Assays:
[1] = system: Tregs in TM00098 patient-derived xenografts; assay: Tumor infiltrated Treg levels by flow cytometry, TM00098 PDX in Hu-CD34-NSG mice; type: in vivo; conditions: day 41, both donors, versus vehicle / other treatment
Protocol: Female NSG mice were implanted with human CD34+ hematopoietic stem cells from multiple donors and the level of human CD45+ cells were measured in the peripheral blood 12 weeks post engraftment. Mice with >25% human CD45+ cells in the peripheral blood were determined to have a humanized immune system (Hu-CD34-NSG™) mice and were enrolled into the study. The Hu-CD34-NSG mice were implanted with TM00098 patient-derived xenografts (PDX) subcutaneously on the right flank. The TM00098 PDX cancer cells originate from a primary tumor of a patient suffering from a grade 3 TNBC invasive ductal carcinoma. […] Tumor volume was measured using a digital caliper two times a week for the duration of the study. […] Cell populations was determined by electronic gating (P1=total leukocytes) on the basis of forward versus side scatter. […] The percentage of Tregs of CD45+ cells were calculated. […] Statistical significance (p<0.05) was determined using a Mann-Whitney test.

MDA-MB-453 cells = assay: CellQuanti-Blue cell viability assay, MDA-MB-453; type: cell-based
Protocol: Cell viability was then assessed using the CellQuanti assay. Relative cell viability was determined using DMSO only and blank controls.
Cells were plated at 2000 cells/well into 96-well plates in media containing 10% FBS. […] CellQuanti-Blue cell viability reagent was added to each well and the plates were subsequently incubated at 37° C. for 3 hours. Viability was determined fluorometrically using an Enspire plate reader […] excitation: 530 nm, emission: 590 nm. Viability was normalized to DMSO controls and blank wells with media.

| Compound | levels of tumor infiltrated Tregs (% Tregs of CD45+ cells) [1] | sensitivity of MDA-MB-453 cells over time of exposure (MDA-MB-453 cells; 24, 48, 72 hours (FIG. 2B)) | potency relative to Iniparib in MDA-MB-453 cells (MDA-MB-453 cells; CellQuanti-Blue, 24, 48 or 72 hours) |
| --- | --- | --- | --- |
| CCCCCCCCS(=O)(=O)c1nc(OC)ccc1[N+](=O)[O-] [OT-1096, 6-methoxy-3-nitro-2-(octylsulfonyl)pyridine] | decreased | – | – |
| COc1ccc([N+](=O)[O-])c(S(=O)(=O)c2ccc(Cl)cc2)n1 [OT-1000, 2-((4-Chlorophenyl)sulfonyl)-6-methoxy-3-nitropyridine] | – | increasingly sensitive | more potent |
